Test results taken from patent US10660903B2, “Orodispersible dosage unit containing an estetrol component” (ESTETRA SPRL, priority 2015, dated 2020).

How the values were obtained:
[1] = humans; cited from earlier work
[2] = target: T1, sex hormone binding globulin (SHBG) (Homo sapiens, UniProt P04278); details: cited from earlier work
T1 sequence (P04278 30-402): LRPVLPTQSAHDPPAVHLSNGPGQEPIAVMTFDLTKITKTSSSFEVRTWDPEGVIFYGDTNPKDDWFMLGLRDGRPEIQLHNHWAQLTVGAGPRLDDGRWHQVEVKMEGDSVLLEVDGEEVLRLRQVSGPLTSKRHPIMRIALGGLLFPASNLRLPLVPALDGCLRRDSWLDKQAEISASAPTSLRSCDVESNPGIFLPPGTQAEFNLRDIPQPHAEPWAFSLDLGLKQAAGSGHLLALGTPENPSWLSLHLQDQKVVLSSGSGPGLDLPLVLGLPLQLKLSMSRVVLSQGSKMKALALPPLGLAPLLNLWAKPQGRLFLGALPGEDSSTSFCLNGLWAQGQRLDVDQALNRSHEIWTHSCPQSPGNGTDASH

[3] = test system: vagina, uterus, body weight, bone mass, bone strength, hot flushes, ovulation; details: rat models; dose-dependent; cited from earlier work
[4] = test system: production of SHBG; details: in vitro; cited from earlier work
[5] = test system: estrogen receptors; details: in vitro; cited from earlier work
[6] = Randomized, open-label, two-period, cross-over pharmacokinetic study, sublingual versus oral estetrol; type: in vivo, human; details: 10 mg estetrol; sublingual vs oral; healthy female volunteers
Experimental: A randomized, open-label, two-period, cross-over, pharmacokinetic study is conducted to compare sublingual bioavailability of 10 mg estetrol administered in one 100 mg tablet with oral availability of estetrol contained in a 83 mg tablet containing 10 mg estetrol. These tablets are administered sublingually and orally to healthy female volunteers under fasting conditions.
Ten healthy female subjects are selected on the basis of the following criteria: age of 45-65 years (inclusive), nonsmokers or past smokers (at least 6 months before dosing), body-mass index (BMI)=18.5 to 30 kg/m^2 (inclusive at the time of the screening).
At the start of the first and the second period of the study, between 07:00 am and 07:28 am, 5 subjects receive a single dose of the sublingual formulation of estetrol by administering one estetrol tablet (tablet weight 100 mg; 10 mg estetrol) and 5 subjects receive a single oral dose of the oral estetrol formulation by administering one estetrol tablet (tablet weight 83 mg; 10 mg estetrol), ingested together with 200 ml water. […]
The estetrol concentration in the collected blood samples is determined by means of HPLC/MS/MS. The concentrations of glucuronided estetrol (D-ring) in the urine samples is also determined with the help of HPLC/MS/MS.

[7] = Particle size distribution by laser diffraction (Malvern Mastersizer Microplus); type: physicochemical; details: milled estetrol used in the tablets
Experimental: The particles size distribution of the estetrol particles, and of other particulate materials used in the present process, may suitably be determined by means of laser diffraction. The particle size distribution of the estetrol particles within the solid dosage unit can suitably be determined using spectroscopic techniques, e.g. Raman mapping.
Particle size distribution of estetrol monohydrate is performed using a MALVERN MASTERS IZER MICROPLUS laser particle size analyzer.
• Weigh 1 g of estetrol monohydrate and 1 g of sorbitan trioleate into a flask. • Add 1 litre of n-hexane and mix for at least 1 hour at room temperature • Filter through a 0.45 μm filter.
• Put 100 mg of sample in a 25 mL beaker. • Add some drops of dispersion medium. • Mix carefully with a glass rod to suspend well the powder. • Add 10 mL of dispersion medium. • Perform the analysis with the sample dispersion unit's speed at 3000-3500 rpm.
Particle size measurements are performed three times using the same dispersion. The final result is obtained by averaging the results of the three determinations.

[8] = test system: human breast cancer cells; details: in the presence of 17β-estradiol; cited from earlier work
[9] = test system: DMBA mammary tumour; details: extent and dose level similar to tamoxifen and to ovariectomy; cited from earlier work

- impact on a liver function parameter, sublingual versus oral estetrol [6]: less impact
- D (v;0.5) (volume median diameter) [7]: ^1 D (v;0.5) = 15 μm
SMILES: C[C@]12CC[C@@H]3c4ccc(O)cc4CC[C@H]3[C@@H]1[C@@H](O)[C@@H](O)[C@@H]2O [estetrol, 1,3,5 (10)-estratrien-3,15α,16α,17β-tetrol]
- oral bioavailability [1]: high and dose-proportional
- terminal elimination half-life [1]: about 28 hours
- binding to SHBG [2]: does not bind
- estrogenic effects on vagina, uterus, body weight, bone mass, bone strength, hot flushes and ovulation [3]: exhibited estrogenic effects
- stimulation of the production of SHBG [4]: does not stimulate
- binding to the estrogen receptors, selectivity [5]: binds highly selective to the estrogen receptors with preference for the ERa form of the receptor
- anti-estrogenic effect [8]: anti-estrogenic effect
- tumour development [9]: prevented tumour development
